{"source": "patent US9278982B2", "about": "“Targeting human thymidylate kinase induces DNA repair toxicity in malignant tumor cells” (NATIONAL YANG-MING UNIVERSITY, priority 2010, dated 2016)", "key": {"[1]": {"system": "panel of cell lines", "test": "Doxorubicin sensitization, MTS viability assay, summary over the panel of cell lines", "type": "cell-based, human", "procedure": "(§1) FIG. 16. In vitro and in vivo effect of YMU1 on doxorubicin sensitization. (A) A panel of cell lines were pre-treated with vehicle, YMU1 (compound 21), D6 (ethyl 4-(2-chloroacetyl)piperazine-1-carboxylate) or D7 (compound 28) for 3 days and were exposed to different concentration of doxorubicin for 4 h. […] The enhancement (fold) of doxorubicin sensitivity in each cell line was calculated. Data represent mean±s.d., n=3; each experiment was quadruplex. Inset indicates the IC50 value of doxorubicin in various cell lines. […] Following overnight culture, cells were refreshed with growth medium. After 14 days of culture, colonies were fixed, stained by crystal violet and counted. (C) HCT-116 p53^−/− cells were subcutaneously implanted in the right flank of Balb/c nude mice (each experimental group n=8). Arrow indicated the time of stopping drug treatment. The tumor volume was estimated as described in Methods of the Invention section. (D) After 2 weeks recovered from treatment, mice were sacrificed for tumor weight measurement. Data represent mean±s.e.m; **, P<0.01 by a two-tailed Student's t-test. (E) Ki 67 proliferation marker staining of tumor shown in left panel. Scale bar, 50 μm. (F) Model of doxorubicin sensitization by YMU1 in malignant cancer cells. Both R2/R1 and TMPK are recruited to the site of doxorubicin-induced double-strand breaks, where dATP, dGTP, dCTP, dTTP and dUTP are site-specific synthesized. Inhibition of TMPK decreases dTTP formation at DNA damage sites, causing futile DNA repair due to dUTP incorporation.\n(§2) Next, various human cancer cell lines were treated with YMU1, D6 or D7 for 72 h to test the potential of TMPK inhibitor in doxorubicin sensitization. After exposure to different concentration of doxorubicin for 4 h, cells were refreshed for viability analysis after 2 days and the IC50 value for doxorubicin in each of the cell lines was determined (FIG. 16A and Table 2).\nThe ability of YMU1 to sensitize non-tumorigenic mammary cycling H184B5F5/M10, MCF10A, primary human mammary epithelial (HMEC) and primary renal epithelial (HREC) cells and IMR-90 embryonic lung fibroblasts to doxorubicin was much weaker.\n(§3) Cells plated into a 96-well plate (10^3 cells/well) were treated and cell viability was measured by MTS assay (Promega) (Cory et al., 1991). An annexin V-fluorescein isothiocyanate (FITC) apoptosis kit (Calbiochem) was used to detect apoptosis. The cell cycle analysis was performed by staining cells with propidium iodide (PI) for fluorescence-activated cell sorter (FACS) analysis with CellQuest software."}, "[2]": {"system": "various cancer cell lines", "test": "Colony formation assay after YMU1 and doxorubicin", "type": "cell-based, human", "settings": "YMU1 72 h, doxorubicin 0.1 μM 4 h, 14 days of culture", "procedure": "as §1, with “Both R2/R1 and TMPK are recruited to the site of doxorubicin-induced double-strand breaks, where dATP, dGTP, dCTP, dTTP and dUTP are site-specific synthesized. Inhibition of TMPK decreases dTTP formation at DNA damage sites, causing futile DNA repair due to dUTP incorporation.” left out"}, "[3]": {"system": "MDA-MB231", "test": "Doxorubicin sensitization, MTS viability assay", "type": "cell-based, human", "procedure": "as §1, §2, §3"}, "[4]": {"system": "MDA-MB468", "test": "Doxorubicin sensitization, MTS viability assay", "type": "cell-based, human", "settings": "doxorubicin sensitivity, YMU1 vs vehicle", "procedure": "as §1, §2, §3"}, "[5]": {"system": "H1299", "test": "Doxorubicin sensitization, MTS viability assay", "type": "cell-based, human", "settings": "doxorubicin sensitivity, YMU1 vs vehicle", "procedure": "as §1, §2, §3"}, "[6]": {"system": "U2OS", "test": "Doxorubicin sensitization, MTS viability assay", "type": "cell-based, human", "settings": "doxorubicin sensitivity, YMU1 vs vehicle", "procedure": "as §1, §2, §3"}, "[7]": {"system": "HCT-116p53+/+", "test": "Doxorubicin sensitization, MTS viability assay", "type": "cell-based, human", "settings": "doxorubicin sensitivity, YMU1 vs vehicle", "procedure": "as §1, §2, §3"}, "[8]": {"system": "HCC1037", "test": "Doxorubicin sensitization, MTS viability assay", "type": "cell-based, human", "settings": "doxorubicin sensitivity, YMU1 vs vehicle", "procedure": "as §1, §2, §3"}, "[9]": {"system": "HT-29", "test": "Doxorubicin sensitization, MTS viability assay", "type": "cell-based, human", "settings": "doxorubicin sensitivity, YMU1 vs vehicle", "procedure": "as §1, §2, §3"}, "[10]": {"system": "IMR-90", "test": "Doxorubicin sensitization, MTS viability assay", "type": "cell-based, human", "settings": "doxorubicin sensitivity, YMU1 vs vehicle", "procedure": "as §1, §2, §3"}, "[11]": {"system": "Capan1", "test": "Doxorubicin sensitization, MTS viability assay", "type": "cell-based, human", "settings": "doxorubicin sensitivity, YMU1 vs vehicle", "procedure": "as §1, §2, §3"}, "[12]": {"system": "H184B5F5/M10", "test": "Doxorubicin sensitization, MTS viability assay", "type": "cell-based, human", "settings": "doxorubicin sensitivity, YMU1 vs vehicle", "procedure": "as §1, §2, §3"}, "[13]": {"system": "MCF-10A", "test": "Doxorubicin sensitization, MTS viability assay", "type": "cell-based, human", "settings": "doxorubicin sensitivity, YMU1 vs vehicle", "procedure": "as §1, §2, §3"}, "[14]": {"system": "SaoS2", "test": "Doxorubicin sensitization, MTS viability assay", "type": "cell-based, human", "settings": "doxorubicin sensitivity, YMU1 vs vehicle", "procedure": "as §1, §2, §3"}, "[15]": {"system": "HREC", "test": "Doxorubicin sensitization, MTS viability assay", "type": "cell-based, human", "settings": "doxorubicin sensitivity, YMU1 vs vehicle", "procedure": "as §1, §2, §3"}, "[16]": {"system": "HCT-116p53−/−", "test": "Doxorubicin sensitization, MTS viability assay", "type": "cell-based, human", "settings": "doxorubicin sensitivity, YMU1 vs vehicle", "procedure": "as §1, §2, §3"}, "[17]": {"system": "HMEC", "test": "Doxorubicin sensitization, MTS viability assay", "type": "cell-based, human", "settings": "doxorubicin sensitivity, YMU1 vs vehicle", "procedure": "as §1, §2, §3"}, "[18]": {"system": "CL-1-0", "test": "Doxorubicin sensitization, MTS viability assay", "type": "cell-based, human", "settings": "doxorubicin sensitivity, YMU1 vs vehicle", "procedure": "as §1, §2, §3"}, "[19]": {"target": "T1, purified human thymidylate kinase (Homo sapiens, UniProt P23919)", "T1 construct": "GST (N, cleaved yes); made in house; host or cells: E. coli JM109 (pGEX-2T-hTMPK)", "T1 sequence (P23919 1-212)": "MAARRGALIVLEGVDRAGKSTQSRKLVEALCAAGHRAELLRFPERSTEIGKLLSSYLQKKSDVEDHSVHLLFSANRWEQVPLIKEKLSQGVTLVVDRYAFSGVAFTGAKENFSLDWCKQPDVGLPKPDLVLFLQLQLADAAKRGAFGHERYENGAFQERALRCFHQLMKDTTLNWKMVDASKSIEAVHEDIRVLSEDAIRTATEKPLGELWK", "test": "NADH-coupled TMPK assay (kinetic parameters)", "type": "biochemical", "settings": "for Ki: 10 min pre-incubation, average of three YMU1 concentrations", "procedure": "The inhibitory mode of YMU1 was determined by pre-incubating different concentrations of YMU1 with purified hTMPK protein and measuring initial velocity using the conventional TMPK assay.\nAll reactions were performed in 96-well plates in an assay volume of 100 μl. The activity of hTMPK was measured at 25° C. using a modified NADH coupled colorimetric assay as described (Agarwal et al., 1978; Miyata et al., 2003; Ostermann et al., 2003), in which purified hTMPK was added to the buffer containing 100 mM Tris-HCl, pH 7.5, 100 mM KCl, 10 mM MgCl2, 0.5 mM phosphoenol pyruvate, 0.25 mM NADH, 5 units of lactate dehydrogenase, 4 units of pyruvate kinase, 1 mM ATP, and 200 μM dTMP. The change of NADH was measured by reading the absorbance at 340 nm. One unit of TMPK activity is defined as the conversion of 1 μmole of TMP to TDP per minute."}}, "data": [{"smiles": "CCOC(=O)N1CCN(C(=O)Cn2sc3nc(C)cc(C)c3c2=O)CC1", "note": "[compound 21, Ethyl 4-(2-(4,6-dimethyl-3-oxoisothiazolo[5,4-b]pyridin-2(3H)-yl)acetyl) piperazine-1-carboxylate]", "values": [{"measurement": "ability to sensitize to doxorubicin", "setting": "[1]; non-tumorigenic H184B5F5/M10, MCF10A, HMEC, HREC cells and IMR-90 fibroblasts", "value": "much weaker"}, {"measurement": "doxorubicin sensitization", "setting": "[1]; two BRCA 1/2 deficient tumor cells defective in homologous recombination repair", "value": "not responsive"}, {"measurement": "lethal effects of doxorubicin (colony assay)", "setting": "[2]", "value": "markedly enhanced the lethal effects of doxorubicin"}, {"measurement": "Enhancement fold", "setting": "[3]; MDA-MB231, doxorubicin sensitivity, YMU1 vs vehicle", "value": 31.0, "unit": "fold"}, {"measurement": "enhancement on doxorubicin sensitization", "setting": "[3]; MDA-MB231 cell treatment, compound at 2 μM", "value": 30, "unit": "fold"}, {"measurement": "Enhancement fold", "setting": "[4]", "value": 27.8, "unit": "fold"}, {"measurement": "Enhancement fold", "setting": "[5]", "value": 12.2, "unit": "fold"}, {"measurement": "Enhancement fold", "setting": "[6]", "value": 4.0, "unit": "fold"}, {"measurement": "Enhancement fold", "setting": "[7]", "value": 6.3, "unit": "fold"}, {"measurement": "Enhancement fold", "setting": "[8]", "value": 0.8, "unit": "fold"}, {"measurement": "Enhancement fold", "setting": "[9]", "value": 3.4, "unit": "fold"}, {"measurement": "Enhancement fold", "setting": "[10]", "value": 1.0, "unit": "fold"}, {"measurement": "Enhancement fold", "setting": "[11]", "value": 1.0, "unit": "fold"}, {"measurement": "Enhancement fold", "setting": "[12]", "value": 1.7, "unit": "fold"}, {"measurement": "Enhancement fold", "setting": "[13]", "value": 1.2, "unit": "fold"}, {"measurement": "Enhancement fold", "setting": "[14]", "value": 35.1, "unit": "fold"}, {"measurement": "Enhancement fold", "setting": "[15]", "value": 1.0, "unit": "fold"}, {"measurement": "Enhancement fold", "setting": "[16]", "value": 6.8, "unit": "fold"}, {"measurement": "Enhancement fold", "setting": "[17]", "value": 1.0, "unit": "fold"}, {"measurement": "Enhancement fold", "setting": "[18]", "value": 6.0, "unit": "fold"}, {"measurement": "Ki", "setting": "[19]; ATP 1 mM, TMP varied 2~200 μM", "value": "220 ± 30", "unit": "nM"}, {"measurement": "Vmax", "setting": "[19]; ATP varied, YMU1 0.25 μM", "value": "212.0 ± 10.3", "unit": "nmol/min/mg"}, {"measurement": "Vmax", "setting": "[19]; ATP varied, YMU1 0.5 μM", "value": "94.8 ± 6.9", "unit": "nmol/min/mg"}, {"measurement": "Vmax", "setting": "[19]; ATP varied, YMU1 1 μM", "value": "55.7 ± 1.3", "unit": "nmol/min/mg"}, {"measurement": "Ki", "setting": "[19]; TMP 200 μM, ATP varied 5~1000 μM", "value": "180 ± 60", "unit": "nM"}, {"measurement": "Vmax", "setting": "[19]; TMP varied, YMU1 0.125 μM", "value": "258.9 ± 12.4", "unit": "nmol/min/mg"}, {"measurement": "Vmax", "setting": "[19]; TMP varied, YMU1 0.25 μM", "value": "180.6 ± 11.8", "unit": "nmol/min/mg"}, {"measurement": "Vmax", "setting": "[19]; TMP varied, YMU1 0.5 μM", "value": "91.8 ± 6.4", "unit": "nmol/min/mg"}]}]}
